Assay results as given in patent US20260209193A1, “NOVEL INHIBITORS OF DNA DAMAGE RESPONSES FOR CANCER THERAPY” (The Regents of the University of California, priority 2022, published 2026).
Each block holds one compound with its values, some of them ahead of it.

Legend:
PARP1 = biological target: T1, PARP1 (Homo sapiens, UniProt P09874); assay: PARP1 trapping, chromatin fractionation (chromatin-bound fraction); type: cell-based
T1 construct: endogenous in cells; host or cells: PC3
From the text: The trapped PARP1 forms a toxic lesion and stalls the progress of replication forks. The replication fork collapses in BRCA1/2-deficient cancer cells, and then results in cell death. […] Six cancer cell lines were used in this assay, including two breast cancer cell lines, BRCA1-mutunt SUM149PT-BRCA1mut and SUM149PT-BRCA1rev where deleterious BRCA1 mutation is reverted to form a functional BRCA1, two ovarian cancer cell lines, BRCA1-null UWB1.289 and UWB1.289+BRCA1, a stable cell line in which wild-type BRCA1 function has been restored, and two prostate cancer cell lines, enzalutamide resistant C4-2B/MR which is homologous recombination (HR)-deficient due to Rad51 mutation, and enzalutamide insensitive PC3 which is HR-proficient.

ATR = biological target: T2, ATR (Homo sapiens, UniProt Q13535); assay: ATR-mediated signaling: phosphorylation of Rad17 Ser 645 and CHK1 Ser 345 in cells; type: cell-based; conditions: for ATR inhibition potency relative to JC099 (OLA- or UV-induced phosphorylation of Rad17 and CHK1): compared to JC099
T2 construct: endogenous in cells; host or cells: PC3, C4-2B/MR, SUM149PT-BRCA1rev, UWB1.289+BRCA1, MDA-MB-231
T2 sequence (Q13535 whole entry): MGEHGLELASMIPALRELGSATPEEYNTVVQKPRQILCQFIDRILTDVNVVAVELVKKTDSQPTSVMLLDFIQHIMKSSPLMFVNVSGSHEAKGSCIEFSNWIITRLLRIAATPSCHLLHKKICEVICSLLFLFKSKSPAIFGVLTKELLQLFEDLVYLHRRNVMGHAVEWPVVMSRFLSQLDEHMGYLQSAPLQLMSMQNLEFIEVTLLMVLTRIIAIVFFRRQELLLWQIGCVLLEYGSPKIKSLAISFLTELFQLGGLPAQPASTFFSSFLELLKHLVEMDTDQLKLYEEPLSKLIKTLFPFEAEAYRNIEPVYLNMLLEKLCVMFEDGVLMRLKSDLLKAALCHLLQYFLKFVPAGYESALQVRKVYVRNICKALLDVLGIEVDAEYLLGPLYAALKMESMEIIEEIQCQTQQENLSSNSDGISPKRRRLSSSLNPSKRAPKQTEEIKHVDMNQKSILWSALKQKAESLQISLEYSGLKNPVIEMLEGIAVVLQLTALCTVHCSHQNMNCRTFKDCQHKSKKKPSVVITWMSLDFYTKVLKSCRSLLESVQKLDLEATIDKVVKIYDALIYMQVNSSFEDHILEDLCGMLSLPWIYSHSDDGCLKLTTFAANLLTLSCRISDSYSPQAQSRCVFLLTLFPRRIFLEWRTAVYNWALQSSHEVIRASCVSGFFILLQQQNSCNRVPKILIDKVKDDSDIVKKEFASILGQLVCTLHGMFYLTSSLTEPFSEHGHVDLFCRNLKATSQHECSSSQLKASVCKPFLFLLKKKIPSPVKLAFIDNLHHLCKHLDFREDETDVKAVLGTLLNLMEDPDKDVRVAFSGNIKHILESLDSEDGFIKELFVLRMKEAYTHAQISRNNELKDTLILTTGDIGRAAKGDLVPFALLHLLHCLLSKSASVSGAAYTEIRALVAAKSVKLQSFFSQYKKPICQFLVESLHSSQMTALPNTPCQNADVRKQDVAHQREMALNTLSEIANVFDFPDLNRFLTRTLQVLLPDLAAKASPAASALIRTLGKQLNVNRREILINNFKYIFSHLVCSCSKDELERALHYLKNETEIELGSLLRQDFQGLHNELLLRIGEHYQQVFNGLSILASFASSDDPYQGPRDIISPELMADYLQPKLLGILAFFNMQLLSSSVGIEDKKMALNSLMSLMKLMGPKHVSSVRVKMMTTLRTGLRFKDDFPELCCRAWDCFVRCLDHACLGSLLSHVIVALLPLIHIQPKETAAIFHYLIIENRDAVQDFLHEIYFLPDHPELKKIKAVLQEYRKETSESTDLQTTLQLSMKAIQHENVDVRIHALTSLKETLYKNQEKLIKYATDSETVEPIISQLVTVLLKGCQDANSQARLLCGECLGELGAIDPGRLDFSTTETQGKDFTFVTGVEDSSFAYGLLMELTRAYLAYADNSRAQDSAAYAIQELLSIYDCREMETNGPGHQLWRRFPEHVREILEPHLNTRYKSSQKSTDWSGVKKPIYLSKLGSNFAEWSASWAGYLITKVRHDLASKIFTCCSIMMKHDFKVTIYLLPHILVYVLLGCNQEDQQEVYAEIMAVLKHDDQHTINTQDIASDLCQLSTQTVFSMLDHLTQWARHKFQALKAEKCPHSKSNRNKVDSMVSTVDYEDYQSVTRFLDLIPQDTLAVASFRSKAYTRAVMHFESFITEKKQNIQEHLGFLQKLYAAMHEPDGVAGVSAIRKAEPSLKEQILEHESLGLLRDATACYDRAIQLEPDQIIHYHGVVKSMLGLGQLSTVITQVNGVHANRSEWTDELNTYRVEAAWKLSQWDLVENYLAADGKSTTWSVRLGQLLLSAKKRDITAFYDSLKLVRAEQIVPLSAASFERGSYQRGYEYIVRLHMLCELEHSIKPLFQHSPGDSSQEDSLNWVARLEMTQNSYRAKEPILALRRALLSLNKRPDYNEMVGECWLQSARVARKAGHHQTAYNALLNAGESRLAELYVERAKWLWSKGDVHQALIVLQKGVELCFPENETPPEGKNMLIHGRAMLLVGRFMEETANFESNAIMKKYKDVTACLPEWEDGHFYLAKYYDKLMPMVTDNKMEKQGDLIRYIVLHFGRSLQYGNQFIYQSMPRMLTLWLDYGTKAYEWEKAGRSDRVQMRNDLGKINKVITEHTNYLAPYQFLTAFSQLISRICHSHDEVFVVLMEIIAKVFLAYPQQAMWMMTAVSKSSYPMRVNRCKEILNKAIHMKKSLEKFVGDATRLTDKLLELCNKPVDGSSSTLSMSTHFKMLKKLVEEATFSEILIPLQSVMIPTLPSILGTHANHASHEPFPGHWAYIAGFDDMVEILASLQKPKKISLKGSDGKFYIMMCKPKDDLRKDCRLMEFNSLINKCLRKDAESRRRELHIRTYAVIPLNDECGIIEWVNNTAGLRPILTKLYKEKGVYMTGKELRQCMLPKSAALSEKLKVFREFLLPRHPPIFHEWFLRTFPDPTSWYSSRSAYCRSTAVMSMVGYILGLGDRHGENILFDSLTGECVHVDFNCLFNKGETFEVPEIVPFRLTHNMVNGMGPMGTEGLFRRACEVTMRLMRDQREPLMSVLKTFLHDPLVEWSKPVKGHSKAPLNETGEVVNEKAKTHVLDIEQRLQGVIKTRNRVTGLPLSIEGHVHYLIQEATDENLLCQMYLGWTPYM
T2 sequence (Q8WXE1 whole entry partner): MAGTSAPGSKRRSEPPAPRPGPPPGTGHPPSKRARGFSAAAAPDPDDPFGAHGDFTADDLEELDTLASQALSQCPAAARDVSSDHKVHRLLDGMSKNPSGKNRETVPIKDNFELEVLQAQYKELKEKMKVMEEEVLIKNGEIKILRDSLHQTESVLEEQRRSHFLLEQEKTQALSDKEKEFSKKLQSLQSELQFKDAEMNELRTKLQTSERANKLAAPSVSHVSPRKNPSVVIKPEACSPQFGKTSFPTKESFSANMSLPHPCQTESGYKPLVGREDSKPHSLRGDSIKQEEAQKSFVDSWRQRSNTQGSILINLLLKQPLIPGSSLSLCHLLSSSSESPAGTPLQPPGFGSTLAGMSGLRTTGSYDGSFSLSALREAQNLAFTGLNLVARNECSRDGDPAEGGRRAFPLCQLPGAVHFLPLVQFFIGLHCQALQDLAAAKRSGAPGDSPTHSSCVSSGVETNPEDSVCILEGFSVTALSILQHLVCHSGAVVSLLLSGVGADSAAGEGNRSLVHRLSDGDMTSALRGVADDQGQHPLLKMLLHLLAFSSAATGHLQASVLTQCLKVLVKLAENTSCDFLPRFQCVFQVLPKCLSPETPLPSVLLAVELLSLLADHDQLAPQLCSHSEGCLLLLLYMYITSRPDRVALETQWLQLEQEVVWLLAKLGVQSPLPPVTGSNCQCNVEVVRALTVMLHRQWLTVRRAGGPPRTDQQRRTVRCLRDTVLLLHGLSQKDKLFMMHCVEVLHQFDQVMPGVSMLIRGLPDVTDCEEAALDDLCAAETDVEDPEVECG
Description: PARP inhibitor-resistant cells are increasingly dependent on ATR for survival, and ATR inhibition disrupts restored HR and fork protection pathways in PARP inhibitor resistant BRCA-deficient cancer cells. For ATR kinase in vitro assays, ATR was immunoprecipitated with 3 μg of anti-ATR antibody (Bethyl Laboratories, A300-137A) from 1 mg of cell lysate. […] The IC50 was determined by the enzyme profiling service of Eurofins Cerep (France). […] The phosphorylation of CHK1 at Ser 345 sites was used as a bio-marker of ATR-mediated signaling pathway. The phosphorylation of Rad17 at Ser 645, which is a substrate of ATR, was also examined.
ATR inhibition was assessed in C4-2B/MR cells. Considering ATM is a homologous protein of ATR, we also detected the effect of JC046 analogs on the phosphorylation of KAP1 at Ser 824 and CHK2 at Thr 68 sites, which were used as markers of ATM signaling pathway.

[1] = 0.5 μM and 2 μM, PC3 and C4-2B/MR cells
[2] = 1 μM and 2 μM, PC3 and SUM149PT-BRCA1rev cells

T1 sequence (P09874 whole entry, species assumed): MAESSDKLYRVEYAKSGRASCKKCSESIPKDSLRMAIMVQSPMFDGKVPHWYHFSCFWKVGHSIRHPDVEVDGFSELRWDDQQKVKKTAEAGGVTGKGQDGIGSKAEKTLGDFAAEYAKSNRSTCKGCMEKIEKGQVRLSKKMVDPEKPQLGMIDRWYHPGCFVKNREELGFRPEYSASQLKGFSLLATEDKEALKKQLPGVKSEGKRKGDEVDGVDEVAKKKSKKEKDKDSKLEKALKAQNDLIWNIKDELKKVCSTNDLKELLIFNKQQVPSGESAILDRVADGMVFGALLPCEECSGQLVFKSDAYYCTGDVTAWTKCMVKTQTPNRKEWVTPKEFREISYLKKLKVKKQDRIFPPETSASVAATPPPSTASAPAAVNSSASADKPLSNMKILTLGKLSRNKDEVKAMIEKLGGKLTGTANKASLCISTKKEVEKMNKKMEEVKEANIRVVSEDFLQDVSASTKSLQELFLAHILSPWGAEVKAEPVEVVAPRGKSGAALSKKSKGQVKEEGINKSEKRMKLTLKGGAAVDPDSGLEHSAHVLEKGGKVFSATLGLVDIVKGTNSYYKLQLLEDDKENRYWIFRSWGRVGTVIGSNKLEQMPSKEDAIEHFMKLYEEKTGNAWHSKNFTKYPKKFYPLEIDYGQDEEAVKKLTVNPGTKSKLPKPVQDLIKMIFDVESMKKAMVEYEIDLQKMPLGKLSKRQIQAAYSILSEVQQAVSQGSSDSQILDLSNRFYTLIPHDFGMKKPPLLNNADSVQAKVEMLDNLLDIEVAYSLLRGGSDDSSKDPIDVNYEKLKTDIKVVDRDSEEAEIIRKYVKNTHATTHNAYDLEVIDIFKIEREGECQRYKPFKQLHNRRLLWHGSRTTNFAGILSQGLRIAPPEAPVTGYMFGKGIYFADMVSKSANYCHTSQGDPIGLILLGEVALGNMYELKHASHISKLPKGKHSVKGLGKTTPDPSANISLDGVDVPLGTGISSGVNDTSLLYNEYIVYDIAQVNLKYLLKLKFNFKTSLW

PARP1 trapped on DNA lesions (PARP1; 0.3 μM, PC3 cells): trapped | Olaparib induced phosphorylation of Rad17 at Ser 645 and CHK1 at Ser 345 (ATR; 1 μM and 2 μM, PC3 cells): inhibited
SMILES: CCN(CC)C(=O)Nc1ccc(C(=O)NC2C/C(=C\c3ccc(F)c(F)c3)C(=O)/C(=C/c3ccc(F)c(F)c3)C2)cc1 (stereo not shown) [JCS059, N-(3,5-bis((E)-3,4-difluorobenzylidene)-4-oxocyclohexyl)-4-(3,3-diethylureido)benzamide]

PARP1 trapped on DNA lesions (PARP1; 0.3 μM, PC3 cells): trapped | PARP1-trapping potency relative to JC099 (PARP1 in the chromatin-bound fraction) (PARP1; PC3 cells): higher potency in PARP1-trapping | Olaparib induced phosphorylation of Rad17 at Ser 645 and CHK1 at Ser 345 (ATR; 1 μM and 2 μM, PC3 cells): inhibited
SMILES: CCCCN(CCCC)C(=O)Nc1ccc(C(=O)NC2C/C(=C\c3ccc(F)c(F)c3)C(=O)/C(=C/c3ccc(F)c(F)c3)C2)cc1 (stereo not shown) [JCS060, N-(3,5-bis((E)-3,4-difluorobenzylidene)-4-oxocyclohexyl)-4-(3,3-dibutylureido)benzamide]

PARP1 trapped on DNA lesions (PARP1; 0.3 μM, PC3 cells): trapped | Olaparib induced phosphorylation of Rad17 at Ser 645 and CHK1 at Ser 345 (ATR; 1 μM and 2 μM, PC3 cells): inhibited
SMILES: O=C1/C(=C/c2cc(Cl)cc(Cl)c2)CC(NC(=O)c2ccc(OCCN3CCCCC3)cc2)C/C1=C\c1cc(Cl)cc(Cl)c1 (stereo not shown) [JCS061, N-(3,5-Bis((E)-3,5-dichlorobenzylidene)-4-oxocyclohexyl)-4-(2-(piperidin-1-yl)ethoxy)benzamide]

PARP1 trapped on DNA lesions (PARP1; 0.3 μM, PC3 cells): trapped | Olaparib induced phosphorylation of Rad17 at Ser 645 and CHK1 at Ser 345 (ATR; 1 μM and 2 μM, PC3 cells): inhibited
SMILES: CCCN(CCC)CCOc1ccc(C(=O)NC2C/C(=C\c3cc(Cl)cc(Cl)c3)C(=O)/C(=C/c3cc(Cl)cc(Cl)c3)C2)cc1 (stereo not shown) [JCS062, N-(3,5-Bis((E)-3,5-dichlorobenzylidene)-4-oxocyclohexyl)-4-(2-(dipropylamino)ethoxy)benzamide]

ATR inhibition potency relative to JC099 (OLA- or UV-induced phosphorylation of Rad17 and CHK1) (ATR): less ATR inhibition potencies
SMILES: O=C1/C(=C/c2ccc(F)c(F)c2)CC(NC(=O)c2ccc3cc(OCCN4CCCCC4)ccc3c2)C/C1=C\c1ccc(F)c(F)c1 (stereo not shown) [JCS097, N-(3,5-Bis((E)-3,4-difluorobenzylidene)-4-oxocyclohexyl)-6-(2-(piperidin-1-yl)ethoxy)-2-naphth-amide]

ATR inhibition potency relative to JC099 (OLA- or UV-induced phosphorylation of Rad17 and CHK1) (ATR): less ATR inhibition potencies
SMILES: CCN(CC)CCOc1ccc2cc(C(=O)NC3C/C(=C\c4ccc(F)c(F)c4)C(=O)/C(=C/c4ccc(F)c(F)c4)C3)ccc2c1 (stereo not shown) [JCS098, N-(3,5-Bis((E)-3,4-difluorobenzylidene)-4-oxocyclohexyl)-6-(2-(diethylamino)ethoxy)-2-naphtha-mide]

ATR inhibition potency relative to JC099 (OLA- or UV-induced phosphorylation of Rad17 and CHK1) (ATR): less ATR inhibition potencies
SMILES: CCN(CC)CCOc1ccc(C(=O)NC2C/C(=C\c3ccc(F)c(F)c3)C(=O)/C(=C/c3ccc(F)c(F)c3)C2)cc1C(C)=O (stereo not shown) [JCS104, 3-Acetyl-N-(3,5-bis((E)-3,4-difluorobenzylidene)-4-oxocyclohexyl)-4-(2-(diethylamino)ethoxy)-benzamide]

ATR inhibition potency relative to JC099 (OLA- or UV-induced phosphorylation of Rad17 and CHK1) (ATR): less ATR inhibition potencies
SMILES: CCN(CC)CCOc1ccc(C(=O)NC2C/C(=C\c3ccc(F)c(F)c3)C(=O)/C(=C/c3ccc(F)c(F)c3)C2)c(C)c1 (stereo not shown) [JCS112, N-(3,5-Bis((E)-3,4-difluorobenzylidene)-4-oxocyclohexyl)-4-(2-(diethylamino)ethoxy)-2-methyl-benzamide]

ATR inhibition potency relative to JC099 (OLA- or UV-induced phosphorylation of Rad17 and CHK1) (ATR): less ATR inhibition potencies
SMILES: CCN(CC)CCOc1ccc(C(=O)NC2C/C(=C\c3ccc(F)c(F)c3)C(=O)/C(=C/c3ccc(F)c(F)c3)C2)cn1 (stereo not shown) [JCS115, N-(3,5-Bis((E)-3,4-difluorobenzylidene)-4-oxocyclohexyl)-6-(2-(diethylamino)ethoxy)nicotinamide]

ATR inhibition potency relative to JC099 (OLA- or UV-induced phosphorylation of Rad17 and CHK1) (ATR): less ATR inhibition potencies
SMILES: O=C1/C(=C/c2ccc(F)c(F)c2)CC(NC(=O)c2ccc(OCCN3CCCCC3)nc2)C/C1=C\c1ccc(F)c(F)c1 (stereo not shown) [JCS116, N-(3,5-Bis((E)-3,4-difluorobenzylidene)-4-oxocyclohexyl)-6-(2-(piperidin-1-yl)ethoxy)nicotinamide]

ATR inhibition potency relative to JC099 (OLA- or UV-induced phosphorylation of Rad17 and CHK1) (ATR): greater ATR inhibition potential
SMILES: COCCN(CCOC)CCOc1ccc(C(=O)NC2C/C(=C\c3cc(F)c(F)c(OC)c3)C(=O)/C(=C/c3cc(F)c(F)c(OC)c3)C2)cc1 (stereo not shown) [JCS153, N-(3,5-Bis((E)-3,4-difluoro-5-methoxybenzylidene)-4-oxocyclohexyl)-4-(2-(bis(2-methoxyethyl)ami-no)ethoxy)benzamide]

ATR inhibition potency relative to JC099 (OLA- or UV-induced phosphorylation of Rad17 and CHK1) (ATR): less ATR inhibition potencies
SMILES: CCN1CCC[C@H]1CNc1ccc(C(=O)NC2C/C(=C\c3ccc(F)c(F)c3F)C(=O)/C(=C/c3ccc(F)c(F)c3F)C2)cc1 (stereo partly drawn) [JCS157, 4-((((S)-1-Ethylpyrrolidin-2-yl)methyl)amino)-N-(4-oxo-3,5-bis((E)-2,3,4-trifluorobenzylidene)-cyclohexyl)benzamide]

The next lines start with the compound.

SMILES: CCN(CC)C(=O)c1ccc(C(=O)NC2C/C(=C\c3ccc(F)c(F)c3)C(=O)/C(=C/c3ccc(F)c(F)c3)C2)c2nn(C)cc12 (stereo not shown) [JCS003, N^7-(3,5-bis((E)-3,4-difluorobenzylidene)-4-oxocyclohexyl)-N^4,N^4-diethyl-2-methyl-2H-indazole-4,7-dicarboxamide]
PARP1 trapped on DNA lesions (PARP1; 0.5 μM, PC3 and C4-2B/MR cells): trapped | Olaparib induced phosphorylation of CHK1 at Ser 345 (ATR; 0.5 μM, 1 μM, 2 μM, PC3 and SUM149PT-BRCA1rev cells): inhibited | Olaparib induced phosphorylation of Rad17 at Ser 645 and CHK1 at Ser 345 (ATR; 2 μM, PC3 cells): inhibited

SMILES: CCN(CC)C(=O)c1ccc(C2C/C(=C\c3ccc(F)c(F)c3)C(=O)/C(=C/c3ccc(F)c(F)c3)C2)c2nn(C)cc12 (stereo not shown) [JCS004, 7-(3,5-bis((E)-3,4-difluorobenzylidene)-4-oxocyclohexyl)-N,N-diethyl-2-methyl-2H-indazole-4-carboxamide]
PARP1 trapped on DNA lesions (PARP1; [1]): trapped | UV induced phosphorylation of CHK1 at Ser 345 (ATR; [2]): inhibited

SMILES: CCN(CC)C(=O)c1ccc(C2C/C(=C\c3ccc(F)c(F)c3)C(=O)/C(=C/c3ccc(F)c(F)c3)C2)c2[nH]ncc12 (stereo not shown) [JCS005, 7-(3,5-bis((E)-3,4-difluorobenzylidene)-4-oxocyclohexyl)-N,N-diethyl-1H-indazole-4-carboxamide]
PARP1 trapped on DNA lesions (PARP1; [1]): trapped | UV induced phosphorylation of CHK1 at Ser 345 (ATR; [2]): inhibited

SMILES: CCN(CC)C(=O)c1ccc(C(=O)NC2C/C(=C\c3ccc(F)c(F)c3)C(=O)/C(=C/c3ccc(F)c(F)c3)C2)c2[nH]ncc12 (stereo not shown) [JCS006, N^7-(3,5-bis((E)-3,4-difluorobenzylidene)-4-oxocyclohexyl)-N^4,N^4-diethyl-1H-indazole-4,7-dicarboxamide]
PARP1 trapped on DNA lesions (PARP1; 0.5 μM, PC3 and C4-2B/MR cells): trapped | Olaparib induced phosphorylation of Rad17 at Ser 645 and CHK1 at Ser 345 (ATR; 2 μM, PC3 cells): inhibited

SMILES: O=C1/C(=C/c2ccc(F)c(F)c2)CC(NC(=O)c2ccc(OCCN3CCCC3)cc2)C/C1=C\c1ccc(F)c(F)c1 (stereo not shown) [JCS008, N-(3,5-Bis((E)-3,4-difluorobenzylidene)-4-oxocyclohexyl)-4-(2-(pyrrolidin-1-yl)ethoxy)benzamide]
PARP1 trapped on DNA lesions (PARP1; 0.5 μM and 2 μM, PC3 cells): trapped | PARP1-trapping potency relative to JC099 (PARP1 in the chromatin-bound fraction) (PARP1; PC3 cells): higher potency in PARP1-trapping | Olaparib induced phosphorylation of Rad17 at Ser 645 and CHK1 at Ser 345 (ATR; 1 μM and 2 μM, PC3 and MDA-MB-231 cells): inhibited

SMILES: CCCCN(CCCC)CCOc1ccc(C(=O)NC2C/C(=C\c3ccc(F)c(F)c3)C(=O)/C(=C/c3ccc(F)c(F)c3)C2)cc1 (stereo not shown) [JCS012, N-(3,5-Bis((E)-3,4-difluorobenzylidene)-4-oxocyclohexyl)-4-(2-(dibutylamino)ethoxy)benzamide]
PARP1 trapped on DNA lesions (PARP1; 0.5 μM and 2 μM, PC3 cells): trapped | PARP1-trapping potency relative to JC099 (PARP1 in the chromatin-bound fraction) (PARP1; PC3 cells): higher potency in PARP1-trapping | ATR inhibition potency relative to JC099 (OLA- or UV-induced phosphorylation of Rad17 and CHK1) (ATR): greater ATR inhibition potential

SMILES: CN1CCN(CC(=O)Nc2ccc(C(=O)NC3C/C(=C\c4ccc(F)c(F)c4)C(=O)/C(=C/c4ccc(F)c(F)c4)C3)cc2)CC1 (stereo not shown) [JCS050, N-(3,5-bis((E)-3,4-difluorobenzylidene)-4-oxocyclohexyl)-4-(2-(4-methylpiperazin-1-yl)acetamido)benzamide]
PARP1 trapped on DNA lesions (PARP1; 0.3 μM, PC3 cells): trapped | PARP1-trapping potency relative to JC099 (PARP1 in the chromatin-bound fraction) (PARP1; PC3 cells): higher potency in PARP1-trapping | ATR inhibition potency relative to JC099 (OLA- or UV-induced phosphorylation of Rad17 and CHK1) (ATR): greater ATR inhibition potential

SMILES: CN(C)CCCN(CCCN(C)C)C(=O)Nc1ccc(C(=O)NC2C/C(=C\c3ccc(F)c(F)c3)C(=O)/C(=C/c3ccc(F)c(F)c3)C2)cc1 (stereo not shown) [JCS058, N-(3,5-bis((E)-3,4-difluorobenzylidene)-4-oxocyclohexyl)-4-(3,3-bis(3-(dimethylamino)propyl)ureido)benzamide]
PARP1 trapped on DNA lesions (PARP1; 0.3 μM, PC3 cells): trapped | Olaparib induced phosphorylation of Rad17 at Ser 645 and CHK1 at Ser 345 (ATR; 1 μM and 2 μM, PC3 cells): inhibited
